Measurements published in patent US12037419B2 (The Feinstein Institutes for Medical Research, priority 2016, dated 2024).
pKd: −log10 of the molar value.

Key:
human monocytes [1] = assay: Monocyte to DC differentiation with GM-CSF and IL-4 (flow cytometry); format: cell-based; conditions: compared with C1q alone
human monocytes [2] = assay: CpG- or LPS-induced cytokine transcription in monocytes; format: cell-based
Experimental: Monocyte isolation and stimulation: Human PBMCs were obtained following institutional guidelines of the Feinstein Institute for Medical Research (Feinstein) and isolated from blood of healthy donors by density centrifugation (New York Blood Bank). Monocytes were negatively enriched using a human monocyte enrichment kit (Stem Cell Technology). Purity of monocytes (≥90% CD11b+CD14+LAIR-1+) was determined by flow cytometry. […] Splenic murine monocytes from wild type mice, RAGE deficient or LAIR-1 conditional knockout mice were isolated using EasySep mouse monocyte enrichment kit (Stem Cell Technology). C57BL/6 mice, Lysozyme2-Cre transgenic mice were purchased from Jackson Laboratory. Myeloid specific LAIR-1 conditional knockout mice (Lysozyme2-Cre×LAIR fl/fl) were bred and maintained in our facility (Feinstein) under specific pathogen-free conditions. RAGE deficient mice (Department of Medicine, Karolinska Institute Stockholm, Sweden) were maintained at Feinstein. Eight-to ten weeks old male mice were used for experiments. […]
RT-PCR analysis and primers: Total RNA was extracted from cells (1-2×10^6 cells per sample) with an RNeasy kit (Qiagen, Venlo, Limburg, Netherlands) and cDNA was generated using an iScript cDNA synthesis kit (Bio-Rad laboratories). […] The relative induction was calculated by 2-ΔΔCt.

RAGE = molecular target: T1, RAGE (Homo sapiens, UniProt Q15109); assay: SPR assay of C1q and RAGE binding; conditions: read-out: KD of C1q and RAGE binding, 25° C., 1:1 binding ratio supposed
T1 construct: purchased R&D Systems
T1 sequence (Q15109 23-342 limits assumed): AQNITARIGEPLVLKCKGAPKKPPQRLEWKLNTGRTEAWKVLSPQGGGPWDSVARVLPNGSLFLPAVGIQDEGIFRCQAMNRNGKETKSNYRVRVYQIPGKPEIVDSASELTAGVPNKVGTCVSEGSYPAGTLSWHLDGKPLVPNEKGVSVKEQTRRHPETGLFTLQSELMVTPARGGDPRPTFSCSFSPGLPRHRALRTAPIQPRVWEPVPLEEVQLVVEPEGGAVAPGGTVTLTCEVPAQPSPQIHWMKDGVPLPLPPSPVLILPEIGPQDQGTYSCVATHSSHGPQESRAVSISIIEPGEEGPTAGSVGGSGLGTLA
Experimental: (§1) Surface Plasmon Resonance analysis (SPR): For real-time binding interaction studies, a BIAcore T200 instrument (GE Healthcare) was used. […] A 1:1 mixture of N-hydroxysuccinimide and N-ethyl-N-(dimethyaminopropyl) carbodiimide was used to activate 2 flow-cells of the CMS chip. […] The analytes were diluted in 1×PBS+0.01% (vol/vol) tween-20 buffer. The analytes were sequentially injected at a flow rate of 30 μl/min for 60 s at 25° C. The KD was dertermined using the BIAcore evaluation software 2.0 (GE Healthcare) supposing a 1:1 binding ratio.

HMGB1 = molecular target: T2, HMGB1 (Homo sapiens, UniProt P09429); assay: SPR assay of HMGB1 and C1q binding, including redox states of HMGB1
T2 construct: made in house
T2 sequence (P09429 1-215): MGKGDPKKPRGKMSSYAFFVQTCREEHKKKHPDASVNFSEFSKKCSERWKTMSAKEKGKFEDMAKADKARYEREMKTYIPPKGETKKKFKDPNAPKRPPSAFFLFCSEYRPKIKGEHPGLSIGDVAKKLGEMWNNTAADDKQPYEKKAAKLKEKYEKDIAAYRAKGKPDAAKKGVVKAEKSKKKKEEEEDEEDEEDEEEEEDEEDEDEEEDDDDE
Experimental: as §1
A 1:1 mixture of N-hyrdoxysuccinimide and N-ethyl-N-(dimethyaminopropyl) carbodiimide was used to activate 2 flow-cells of the CMS chip. […] The analyte (HMGB1) was diluted in 1×HBS-N+0.05% tween-20 buffer (filtered—0.22 um). Three redox states of HMGB1 were sequentially injected at a flow rate of 20 μl/min for 60 s at 25° C., the dissociation time was set for 3 minutes. The concentration was set at 500 nM.
The analytes were diluted in 1×HBS-N+0.05% tween-20 buffer (filtered—0.22 um). The analytes were sequentially injected at a flow rate of 20 μl/min for 60 s at 25° C. The dissociation time was set for 3 minutes. The KD for each analyte was determined using the Biacore evaluation software 2.0 supposing a 1:1 binding ratio.

human monocytes [3] = assay: HMGB1-induced monocyte activation (cytokine mRNA by q-PCR, protein by ELISA/MSD); format: cell-based
Experimental: Monocyte isolation and stimulation: Human PBMCs were obtained following institutional guidelines of the Feinstein Institute for Medical Research (Feinstein) and isolated from blood of healthy donors by density centrifugation (New York Blood Bank). Monocytes were negatively enriched using a human monocyte enrichment kit (Stem Cell Technology). Purity of monocytes (≥90% CD11b+CD14+LAIR-1+) was determined by flow cytometry. […] Splenic murine monocytes from wild type mice, RAGE deficient or LAIR-1 conditional knockout mice were isolated using EasySep mouse monocyte enrichment kit (Stem Cell Technology). C57BL/6 mice, Lysozyme2-Cre transgenic mice were purchased from Jackson Laboratory. Myeloid specific LAIR-1 conditional knockout mice (Lysozyme2-Cre×LAIR fl/fl) were bred and maintained in our facility (Feinstein) under specific pathogen-free conditions. RAGE deficient mice (Department of Medicine, Karolinska Institute Stockholm, Sweden) were maintained at Feinstein. Eight-to ten weeks old male mice were used for experiments. All animal procedures were approved by the Feinstein Institutional Animal Care and Use Committee.
RT-PCR analysis and primers: Total RNA was extracted from cells (1-2×10^6 cells per sample) with an RNeasy kit (Qiagen, Venlo, Limburg, Netherlands) and cDNA was generated using an iScript cDNA synthesis kit (Bio-Rad laboratories). Real Time-PCR was performed on a Light Cycler 480 II (Roche) using Light Cycler 480 master mix with primers (Applied Biosystems) for IFNα1 (Hs00256882), IFNα7 (mm02525960), MX1 (Hs00182073, mm01217998), IL-6 (Hs00985639, mm99999064), TNFα (Hs00174128, mm00443258), IL-12a (Hs00168405), Mer (Hs01031973), PDL-1 (Hs01125301), IL-10 (Hs00961622), CD163 (Hs00174705), HPRT1 (Hs99999909, mm01545399) and Polr2a (Hs00172187). The genes of interest were normalized to the expression of house keeping genes and were compared to a control condition with no treatment. The relative induction was calculated by 2-ΔΔCt.
Transfection: For RNA interference assays, human monocytes were transfected using an Amaxa Nucleofector kit (Lonza) with a greater than 40% transfection efficiency. siRNAs were obtained from Qiagen. The target sequence of human LAIR1-11 is […] (SEQ ID NO:9). The efficiency of knockdown was determined by flow cytometry and q-PCR.
Cytokine analysis: Cytokine levels were measured using a Human Proinflammatory 7-plex assay following the manufacturer's protocols (Meso Scale Discovery (MSD). MSD plates were analyzed on the MS2400 imager (MSD). All standards and samples were run in duplicates.

[4] = molecular target: T3, LAIR-1 and RAGE in lipid rafts (Homo sapiens, UniProt Q15109+Q6GTX8); assay: Lipid raft fractionation and Western blot; format: cell-based; conditions: in the presence of HMGB1 and C1q
T3 construct: endogenous in cells; host or cells: monocytes
T3 sequence (Q6GTX8 22-287): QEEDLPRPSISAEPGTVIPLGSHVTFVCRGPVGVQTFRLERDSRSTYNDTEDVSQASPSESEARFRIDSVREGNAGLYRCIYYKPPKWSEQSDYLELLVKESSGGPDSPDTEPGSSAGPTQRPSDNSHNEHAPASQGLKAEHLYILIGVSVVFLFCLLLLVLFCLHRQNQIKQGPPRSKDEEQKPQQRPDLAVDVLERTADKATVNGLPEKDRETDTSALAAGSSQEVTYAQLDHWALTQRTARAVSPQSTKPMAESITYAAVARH
T3 sequence (Q15109 23-404): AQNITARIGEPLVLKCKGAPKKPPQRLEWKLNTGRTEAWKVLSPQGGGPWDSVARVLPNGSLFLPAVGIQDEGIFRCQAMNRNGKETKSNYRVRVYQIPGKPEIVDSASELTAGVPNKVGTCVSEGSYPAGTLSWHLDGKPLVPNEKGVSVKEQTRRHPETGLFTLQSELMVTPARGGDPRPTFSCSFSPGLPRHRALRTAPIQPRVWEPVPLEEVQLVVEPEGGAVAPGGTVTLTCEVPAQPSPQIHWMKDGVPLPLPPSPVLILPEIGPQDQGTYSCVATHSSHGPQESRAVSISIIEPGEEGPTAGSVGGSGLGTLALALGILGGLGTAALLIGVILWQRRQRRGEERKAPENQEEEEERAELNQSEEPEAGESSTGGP
Experimental: Lipid raft fractionation: Lipid rafts were prepared as described (50). Monocytes (5×10^6) were lysed in 1 ml THE buffer (25 mM Tris, 150 mM NaCl, 5 mM EDTA) containing 1% Triton and incubated for 30 min on ice. Lysates were homogenized with 10 strokes of a dounce homogenizer, mixed with 2 ml of 80% sucrose in TNE buffer, and transferred to a centrifuge tube. Samples were overlaid with 4 ml of 30% sucrose and 2 ml of 5% sucrose in TNE. After centrifugation for 16 h at 180,000 g in a Beckman Coulter SW41Ti rotor, 0.8 ml fractions were collected from the top of the gradient. Each fraction was subjected to slot blot analysis to identify GM1-enriched rafts fraction using FITC-conjugated cholera toxin-B subunit (Sigma). Lipid raft fractions were precipitated with TCA and washed with 70% EtOH, then subjected to slot blot analysis or Western blot.

[5] = C1q 25 μg/ml, HMGB1 3 μg/ml, 6 h

With “C1q: C1q purified from pooled normal human sera, obtained from Complement Technology” the “expression of CD14 and LAIR-1 after GM-CSF and IL-4, pre-exposure to both HMGB1 and C1q” value (human monocytes [1]) was “significantly higher”, the “CpG-mediated induction of pro-inflammatory cytokines and IFN inducible genes” value (human monocytes [2]; CpG 2216) was “inhibits CpG-mediated induction of pro-inflammatory cytokines” and the LPS-induced cytokine transcription (human monocytes [2]; LPS) was “no effect on LPS-induced cytokine transcription”. The pKd (RAGE) was 6.07, the “binding to different redox states of HMGB1” value (HMGB1; disulfide, all thiol, oxidized HMGB1) was “preferentially binding to the disulfide form of HMGB1” and the pKd (HMGB1; read-out: KD of HMGB1 and C1q binding, 25° C., 1:1 binding ratio supposed) was 6.70. For the same substance, the “HMGB1-induced IFN, IL-6 and TNFα in adherent cell fraction of PBMCs” value (human monocytes [3]; [5]) was “inhibited this HMGB1-mediated activation”, the “HMGB1-mediated cytokine induction in monocytes treated with LAIR-1-specific siRNA” value (human monocytes [3]; [5]) was “no effect” and the “HMGB1-induced monocyte activation in the presence of soluble decoy receptor LAIR-2” value (human monocytes [3]; C1q 25 μg/ml, LAIR-2 20 μg/ml, HMGB1 3 μg/ml, 6 h) was “failed to inhibit monocyte activation”. For the same substance, the “transcription of cytokine genes in the absence of HMGB1” value (human monocytes [3]; C1q alone, serum free medium) was “did not alter transcription”, the “monocyte activation by HMGB1, C1q levels commonly present in SLE patients” value (human monocytes [3]; C1q ˜25-50 μg/ml) was “less inhibitory” and the “HMGB1-mediated cytokine transcription and protein induction” value (human monocytes [3]; HMGB1 3 μg/ml, various C1q concentrations, serum free medium, 6 h mRNA, 24 h protein) was “counteracted the HMGB1-mediated cytokine transcription and protein induction in a dose-dependent manner”. The “inhibitory effect of C1q at increased HMGB1 level” value (human monocytes [3]; HMGB1 10 μg ml-1) was “abrogated the inhibitory effect of C1q”, the “monocyte activation by HMGB1, physiologic levels of C1q” value (human monocytes [3]; physiologic C1q levels) was “effectively blocked monocyte activation” and the “localization of LAIR-1 and RAGE in lipid rafts” value [4] was “LAIR-1 migrated to lipid rafts where LAIR-1 colocalized with RAGE”.
